From ChEMBL document CHEMBL1201861, “Genomics of Drug Sensitity in Cancer screening data, Wellcome Trust Sanger Institute”

test system: A-431; assay: cells; type: functional, cell-based; conditions: Homo sapiens;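 note: growth inhibition of A-431 cells, determined with a cell viability read-out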
Description: SANGER: Inhibition of human A431 cell growth in a cell viability assay.

Row | SMILES | IC50 [µM]
1 | O=C(NCCCNc1nc(Nc2cccc(NC(=O)N3CCCC3)c2)ncc1I)c1cccs1 [BX-795] | 2.76

test system: UMC-11; assay: cells; type: functional, cell-based; conditions: Homo sapiens;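 note: growth inhibition of UMC-11 cells, read out with a cell viability assay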
Description: SANGER: Inhibition of human UMC-11 cell growth in a cell viability assay.

Row | SMILES | IC50 [µM]
2 | O=C(NCCCNc1nc(Nc2cccc(NC(=O)N3CCCC3)c2)ncc1I)c1cccs1 [BX-795] | 2.9

test system: MKN-28; assay: cells; type: functional, cell-based; conditions: Homo sapiens;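 note: cell viability assay read-out, IC50 reflects suppression of growth of human MKN-28 cells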
Description: SANGER: Inhibition of human MKN28 cell growth in a cell viability assay.

Row | SMILES | IC50 [µM]
3 | O=C(NCCCNc1nc(Nc2cccc(NC(=O)N3CCCC3)c2)ncc1I)c1cccs1 [BX-795] | > 5

test system: NCI-H28; assay: cells; type: functional, cell-based; conditions: Homo sapiens;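 note: growth inhibition of human NCI-H28 cells, read out as cell viability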
Description: SANGER: Inhibition of human NCI-H28 cell growth in a cell viability assay.

Row | SMILES | IC50 [µM]
4 | O=C(NCCCNc1nc(Nc2cccc(NC(=O)N3CCCC3)c2)ncc1I)c1cccs1 [BX-795] | 2.85

test system: MHH-ES-1; assay: cells; type: functional, cell-based; conditions: Homo sapiens;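 note: cell growth inhibition measured by a cell viability assay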
Description: SANGER: Inhibition of human MHH-ES-1 cell growth in a cell viability assay.

Row | SMILES | IC50 [µM]
5 | O=C(NCCCNc1nc(Nc2cccc(NC(=O)N3CCCC3)c2)ncc1I)c1cccs1 [BX-795] | 2.73

test system: PANC-08-13; assay: cells; type: functional, cell-based; conditions: Homo sapiens;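 note: cell growth inhibition, measured with a cell viability assay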
Description: SANGER: Inhibition of human PANC-08-13 cell growth in a cell viability assay.

Row | SMILES | IC50 [µM]
6 | O=C(NCCCNc1nc(Nc2cccc(NC(=O)N3CCCC3)c2)ncc1I)c1cccs1 [BX-795] | > 5

test system: NCI-H460; assay: cells; type: functional, cell-based; conditions: Homo sapiens;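 note: cell viability assay scoring growth inhibition of human NCI-H460 cells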
Description: SANGER: Inhibition of human NCI-H460 cell growth in a cell viability assay.

Row | SMILES | IC50 [µM]
7 | O=C(NCCCNc1nc(Nc2cccc(NC(=O)N3CCCC3)c2)ncc1I)c1cccs1 [BX-795] | 2.44

test system: 8305C; assay: cells; type: functional, cell-based; conditions: Homo sapiens
Description: SANGER: Inhibition of human 8305C cell growth in a cell viability assay.

Row | SMILES | IC50 [µM]
8 | O=C(NCCCNc1nc(Nc2cccc(NC(=O)N3CCCC3)c2)ncc1I)c1cccs1 [BX-795] | 3.61

test system: HPAF-II; assay: cells; type: functional, cell-based; conditions: Homo sapiens;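 note: growth inhibition of HPAF-II cells, read out with a cell viability assay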
Description: SANGER: Inhibition of human HPAF-II cell growth in a cell viability assay.

Row | SMILES | IC50 [µM]
9 | O=C(NCCCNc1nc(Nc2cccc(NC(=O)N3CCCC3)c2)ncc1I)c1cccs1 [BX-795] | > 5

test system: BHT-101; assay: cells; type: functional, cell-based; conditions: Homo sapiens
Description: SANGER: Inhibition of human BHT-101 cell growth in a cell viability assay.

Row | SMILES | IC50 [µM]
10 | O=C(NCCCNc1nc(Nc2cccc(NC(=O)N3CCCC3)c2)ncc1I)c1cccs1 [BX-795] | 1.58

test system: U2OS; assay: cells; type: functional, cell-based, U-2-OS; conditions: Homo sapiens;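 note: growth inhibition of human U-2-OS cells, determined with a cell viability assay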
Description: SANGER: Inhibition of human U-2-OS cell growth in a cell viability assay.

Row | SMILES | IC50 [µM]
11 | O=C(NCCCNc1nc(Nc2cccc(NC(=O)N3CCCC3)c2)ncc1I)c1cccs1 [BX-795] | 1.59

test system: NCI-H1623; assay: cells; type: functional, cell-based; conditions: Homo sapiens;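 note: cell viability assay used as the read-out for growth inhibition of NCI-H1623 cells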
Description: SANGER: Inhibition of human NCI-H1623 cell growth in a cell viability assay.

Row | SMILES | IC50 [µM]
12 | O=C(NCCCNc1nc(Nc2cccc(NC(=O)N3CCCC3)c2)ncc1I)c1cccs1 [BX-795] | > 5

test system: P12-Ichikawa; assay: cells; type: functional, cell-based; conditions: Homo sapiens

Row | SMILES | IC50 [µM]
13 | O=C(NCCCNc1nc(Nc2cccc(NC(=O)N3CCCC3)c2)ncc1I)c1cccs1 [BX-795] | 1.18

test system: RCM-1; assay: cells; type: functional, cell-based; conditions: Homo sapiens;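 note: growth inhibition of the RCM-1 line, determined with a cell viability readout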
Description: SANGER: Inhibition of human RCM-1 cell growth in a cell viability assay.

Row | SMILES | IC50 [µM]
14 | O=C(NCCCNc1nc(Nc2cccc(NC(=O)N3CCCC3)c2)ncc1I)c1cccs1 [BX-795] | > 5

test system: SCC-25; assay: cells; type: functional, cell-based; conditions: Homo sapiens;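 note: growth inhibition of SCC-25 cells, measured with a cell viability assay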
Description: SANGER: Inhibition of human SCC-25 cell growth in a cell viability assay.

Row | SMILES | IC50 [µM]
15 | O=C(NCCCNc1nc(Nc2cccc(NC(=O)N3CCCC3)c2)ncc1I)c1cccs1 [BX-795] | > 5

test system: KP-4; assay: cells; type: functional, cell-based; conditions: Homo sapiens;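 note: human KP-4 cells, with growth inhibition read out through a cell viability assay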
Description: SANGER: Inhibition of human KP-4 cell growth in a cell viability assay.

Row | SMILES | IC50 [µM]
16 | O=C(NCCCNc1nc(Nc2cccc(NC(=O)N3CCCC3)c2)ncc1I)c1cccs1 [BX-795] | > 5

test system: CAL-72; assay: cells; type: functional, cell-based; conditions: Homo sapiens;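 note: cell viability assay measuring inhibition of proliferation in the CAL-72 cell line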
Description: SANGER: Inhibition of human CAL-72 cell growth in a cell viability assay.

Row | SMILES | IC50 [µM]
17 | O=C(NCCCNc1nc(Nc2cccc(NC(=O)N3CCCC3)c2)ncc1I)c1cccs1 [BX-795] | 4.22

test system: EW-22; assay: cells; type: functional, cell-based; conditions: Homo sapiens;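 note: growth inhibition of the EW-22 cell line, measured with a cell viability readout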
Description: SANGER: Inhibition of human EW-22 cell growth in a cell viability assay.

Row | SMILES | IC50 [µM]
18 | O=C(NCCCNc1nc(Nc2cccc(NC(=O)N3CCCC3)c2)ncc1I)c1cccs1 [BX-795] | 3.91

test system: BCPAP; assay: cells; type: functional, cell-based; conditions: Homo sapiens;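 note: growth inhibition of BCPAP cells, read out in a cell viability assay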
Description: SANGER: Inhibition of human BCPAP cell growth in a cell viability assay.

Row | SMILES | IC50 [µM]
19 | O=C(NCCCNc1nc(Nc2cccc(NC(=O)N3CCCC3)c2)ncc1I)c1cccs1 [BX-795] | 2.23

test system: MeWo; assay: cells; type: functional, cell-based; conditions: Homo sapiens;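 note: growth inhibition of MeWo cells, determined by a cell viability readout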
Description: SANGER: Inhibition of human Mewo cell growth in a cell viability assay.

Row | SMILES | IC50 [µM]
20 | O=C(NCCCNc1nc(Nc2cccc(NC(=O)N3CCCC3)c2)ncc1I)c1cccs1 [BX-795] | > 5

test system: SW948; assay: cells; type: functional, cell-based; conditions: Homo sapiens;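 note: growth inhibition of SW948 cells, read out with a cell viability assay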
Description: SANGER: Inhibition of human SW948 cell growth in a cell viability assay.

Row | SMILES | IC50 [µM]
21 | O=C(NCCCNc1nc(Nc2cccc(NC(=O)N3CCCC3)c2)ncc1I)c1cccs1 [BX-795] | > 5

test system: SK-MEL-28; assay: cells; type: functional, cell-based; conditions: Homo sapiens;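 note: growth inhibition of human SK-MEL-28 cells, read out with a cell viability assay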
Description: SANGER: Inhibition of human SK-MEL-28 cell growth in a cell viability assay.

Row | SMILES | IC50 [µM]
22 | O=C(NCCCNc1nc(Nc2cccc(NC(=O)N3CCCC3)c2)ncc1I)c1cccs1 [BX-795] | > 5

test system: SK-MEL-30; assay: cells; type: functional, cell-based; conditions: Homo sapiens;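 note: growth inhibition of SK-MEL-30 cells, determined with a cell viability assay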
Description: SANGER: Inhibition of human SK-MEL-30 cell growth in a cell viability assay.

Row | SMILES | IC50 [µM]
23 | O=C(NCCCNc1nc(Nc2cccc(NC(=O)N3CCCC3)c2)ncc1I)c1cccs1 [BX-795] | > 5

test system: SF-295; assay: cells; type: functional, cell-based; conditions: Homo sapiens;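 note: growth inhibition of SF-295 cells, read out with a cell viability assay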
Description: SANGER: Inhibition of human SF295 cell growth in a cell viability assay.

Row | SMILES | IC50 [µM]
24 | O=C(NCCCNc1nc(Nc2cccc(NC(=O)N3CCCC3)c2)ncc1I)c1cccs1 [BX-795] | 4.18

test system: 5637; assay: cells; type: functional, cell-based; conditions: Homo sapiens
Description: SANGER: Inhibition of human 5637 cell growth in a cell viability assay.

Row | SMILES | IC50 [µM]
25 | O=C(NCCCNc1nc(Nc2cccc(NC(=O)N3CCCC3)c2)ncc1I)c1cccs1 [BX-795] | > 5

test system: ChaGo-K-1; assay: cells; type: functional, cell-based; conditions: Homo sapiens;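 note: growth inhibition of ChaGo-K-1 cells, read out with a cell viability assay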
Description: SANGER: Inhibition of human ChaGo-K-1 cell growth in a cell viability assay.

Row | SMILES | IC50 [µM]
26 | O=C(NCCCNc1nc(Nc2cccc(NC(=O)N3CCCC3)c2)ncc1I)c1cccs1 [BX-795] | > 5

test system: HT55; assay: cells; type: functional, cell-based; conditions: Homo sapiens;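 note: cell viability readout measuring growth inhibition of human HT55 cells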
Description: SANGER: Inhibition of human HT55 cell growth in a cell viability assay.

Row | SMILES | IC50 [µM]
27 | O=C(NCCCNc1nc(Nc2cccc(NC(=O)N3CCCC3)c2)ncc1I)c1cccs1 [BX-795] | > 5

test system: HSC-3; assay: cells; type: functional, cell-based; conditions: Homo sapiens
Description: SANGER: Inhibition of human HSC-3 cell growth in a cell viability assay.

Row | SMILES | IC50 [µM]
28 | O=C(NCCCNc1nc(Nc2cccc(NC(=O)N3CCCC3)c2)ncc1I)c1cccs1 [BX-795] | 1.44

test system: MG-63; assay: cells; type: functional, cell-based; conditions: Homo sapiens;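 note: growth inhibition of human MG-63 cells, read out with a cell viability assay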
Description: SANGER: Inhibition of human MG-63 cell growth in a cell viability assay.

Row | SMILES | IC50 [µM]
29 | O=C(NCCCNc1nc(Nc2cccc(NC(=O)N3CCCC3)c2)ncc1I)c1cccs1 [BX-795] | 1.69

test system: SK-N-AS; assay: cells; type: functional, cell-based; conditions: Homo sapiens;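 note: growth inhibition of human SK-N-AS cells, measured with a cell viability assay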
Description: SANGER: Inhibition of human SK-N-AS cell growth in a cell viability assay.

Row | SMILES | IC50 [µM]
30 | O=C(NCCCNc1nc(Nc2cccc(NC(=O)N3CCCC3)c2)ncc1I)c1cccs1 [BX-795] | > 5

test system: DK-MG; assay: cells; type: functional, cell-based; conditions: Homo sapiens;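 note: growth inhibition of DK-MG cells, read out with a cell viability assay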
Description: SANGER: Inhibition of human DK-MG cell growth in a cell viability assay.

Row | SMILES | IC50 [µM]
31 | O=C(NCCCNc1nc(Nc2cccc(NC(=O)N3CCCC3)c2)ncc1I)c1cccs1 [BX-795] | 1.57

test system: WM-115; assay: cells; type: functional, cell-based; conditions: Homo sapiens
Description: SANGER: Inhibition of human WM-115 cell growth in a cell viability assay.

Row | SMILES | IC50 [µM]
32 | O=C(NCCCNc1nc(Nc2cccc(NC(=O)N3CCCC3)c2)ncc1I)c1cccs1 [BX-795] | 3.88

test system: SAOS-2; assay: cells; type: functional, cell-based; conditions: Homo sapiens;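 note: growth inhibition of human Saos-2 cells determined by a cell viability assay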
Description: SANGER: Inhibition of human Saos-2 cell growth in a cell viability assay.

Row | SMILES | IC50 [µM]
33 | O=C(NCCCNc1nc(Nc2cccc(NC(=O)N3CCCC3)c2)ncc1I)c1cccs1 [BX-795] | 4.12

test system: OVCAR-8; assay: cells; type: functional, cell-based; conditions: Homo sapiens;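 note: growth inhibition of human OVCAR-8 cells, read out by a cell viability assay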
Description: SANGER: Inhibition of human OVCAR-8 cell growth in a cell viability assay.

Row | SMILES | IC50 [µM]
34 | O=C(NCCCNc1nc(Nc2cccc(NC(=O)N3CCCC3)c2)ncc1I)c1cccs1 [BX-795] | > 5

test system: Huh-7; assay: cells; type: functional, cell-based; conditions: Homo sapiens;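 note: HuH-7 cell growth inhibition, read out with a cell viability assay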
Description: SANGER: Inhibition of human HuH-7 cell growth in a cell viability assay.

Row | SMILES | IC50 [µM]
35 | O=C(NCCCNc1nc(Nc2cccc(NC(=O)N3CCCC3)c2)ncc1I)c1cccs1 [BX-795] | 4.82

test system: EFM-19; assay: cells; type: functional, cell-based; conditions: Homo sapiens;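 note: growth inhibition of human EFM-19 cells, measured in a cell viability assay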
Description: SANGER: Inhibition of human EFM-19 cell growth in a cell viability assay.

Row | SMILES | IC50 [µM]
36 | O=C(NCCCNc1nc(Nc2cccc(NC(=O)N3CCCC3)c2)ncc1I)c1cccs1 [BX-795] | > 5

test system: 769-P; assay: cells; type: functional, cell-based; conditions: Homo sapiens
Description: SANGER: Inhibition of human 769-P cell growth in a cell viability assay.

Row | SMILES | IC50 [µM]
37 | O=C(NCCCNc1nc(Nc2cccc(NC(=O)N3CCCC3)c2)ncc1I)c1cccs1 [BX-795] | > 5

test system: MIA PaCa-2; assay: cells; type: functional, cell-based; conditions: Homo sapiens;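 note: growth inhibition of MIA PaCa-2 cells, read out with a cell viability assay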
Description: SANGER: Inhibition of human MIA-PaCa-2 cell growth in a cell viability assay.

Row | SMILES | IC50 [µM]
38 | O=C(NCCCNc1nc(Nc2cccc(NC(=O)N3CCCC3)c2)ncc1I)c1cccs1 [BX-795] | > 5

test system: Panc1005; assay: cells; type: functional, cell-based; conditions: Homo sapiens;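 note: growth inhibition of human PANC-10-05 cells, measured by a cell viability assay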
Description: SANGER: Inhibition of human PANC-10-05 cell growth in a cell viability assay.

Row | SMILES | IC50 [µM]
39 | O=C(NCCCNc1nc(Nc2cccc(NC(=O)N3CCCC3)c2)ncc1I)c1cccs1 [BX-795] | > 5

test system: 647-V; assay: cells; type: functional, cell-based; conditions: Homo sapiens;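 note: growth inhibition of 647-V cells, read out with a cell viability assay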
Description: SANGER: Inhibition of human 647-V cell growth in a cell viability assay.

Row | SMILES | IC50 [µM]
40 | O=C(NCCCNc1nc(Nc2cccc(NC(=O)N3CCCC3)c2)ncc1I)c1cccs1 [BX-795] | > 5

test system: NCI-H441; assay: cells; type: functional, cell-based; conditions: Homo sapiens;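 note: growth inhibition of NCI-H441 cells, read out with a cell viability assay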
Description: SANGER: Inhibition of human NCI-H441 cell growth in a cell viability assay.

Row | SMILES | IC50 [µM]
41 | O=C(NCCCNc1nc(Nc2cccc(NC(=O)N3CCCC3)c2)ncc1I)c1cccs1 [BX-795] | > 5

test system: G-401; assay: cells; type: functional, cell-based; conditions: Homo sapiens
Description: SANGER: Inhibition of human G-401 cell growth in a cell viability assay.

Row | SMILES | IC50 [µM]
42 | O=C(NCCCNc1nc(Nc2cccc(NC(=O)N3CCCC3)c2)ncc1I)c1cccs1 [BX-795] | 2.56

test system: OE33; assay: cells; type: functional, cell-based; conditions: Homo sapiens;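 note: growth inhibition of human OE33 cells, measured by a cell viability assay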
Description: SANGER: Inhibition of human OE33 cell growth in a cell viability assay.

Row | SMILES | IC50 [µM]
43 | O=C(NCCCNc1nc(Nc2cccc(NC(=O)N3CCCC3)c2)ncc1I)c1cccs1 [BX-795] | > 5

test system: NCI-H2347; assay: cells; type: functional, cell-based; conditions: Homo sapiens;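 note: growth inhibition of the cell line, read out with a cell viability assay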
Description: SANGER: Inhibition of human NCI-H2347 cell growth in a cell viability assay.

Row | SMILES | IC50 [µM]
44 | O=C(NCCCNc1nc(Nc2cccc(NC(=O)N3CCCC3)c2)ncc1I)c1cccs1 [BX-795] | 4.92

test system: RO82-W-1; assay: cells; type: functional, cell-based; conditions: Homo sapiens;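 note: growth inhibition of human RO82-W-1 cells, measured with a cell viability assay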
Description: SANGER: Inhibition of human RO82-W-1 cell growth in a cell viability assay.

Row | SMILES | IC50 [µM]
45 | O=C(NCCCNc1nc(Nc2cccc(NC(=O)N3CCCC3)c2)ncc1I)c1cccs1 [BX-795] | 4.34

test system: EGI-1; assay: cells; type: functional, cell-based; conditions: Homo sapiens;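 note: cell viability readout used to gauge growth inhibition of EGI-1 cells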
Description: SANGER: Inhibition of human EGI-1 cell growth in a cell viability assay.

Row | SMILES | IC50 [µM]
46 | O=C(NCCCNc1nc(Nc2cccc(NC(=O)N3CCCC3)c2)ncc1I)c1cccs1 [BX-795] | > 5
